Reference: ChEMBL document CHEMBL1154549, “Three new triterpenoids from Peganum nigellastrum” (J Nat Prod, 2000)

Molecular target: DNA topoisomerase 2-alpha (Homo sapiens, UniProt P11388)
Experiment: Inhibition of human topoisomerase 2

Sequence of DNA topoisomerase 2-alpha (P11388 whole entry): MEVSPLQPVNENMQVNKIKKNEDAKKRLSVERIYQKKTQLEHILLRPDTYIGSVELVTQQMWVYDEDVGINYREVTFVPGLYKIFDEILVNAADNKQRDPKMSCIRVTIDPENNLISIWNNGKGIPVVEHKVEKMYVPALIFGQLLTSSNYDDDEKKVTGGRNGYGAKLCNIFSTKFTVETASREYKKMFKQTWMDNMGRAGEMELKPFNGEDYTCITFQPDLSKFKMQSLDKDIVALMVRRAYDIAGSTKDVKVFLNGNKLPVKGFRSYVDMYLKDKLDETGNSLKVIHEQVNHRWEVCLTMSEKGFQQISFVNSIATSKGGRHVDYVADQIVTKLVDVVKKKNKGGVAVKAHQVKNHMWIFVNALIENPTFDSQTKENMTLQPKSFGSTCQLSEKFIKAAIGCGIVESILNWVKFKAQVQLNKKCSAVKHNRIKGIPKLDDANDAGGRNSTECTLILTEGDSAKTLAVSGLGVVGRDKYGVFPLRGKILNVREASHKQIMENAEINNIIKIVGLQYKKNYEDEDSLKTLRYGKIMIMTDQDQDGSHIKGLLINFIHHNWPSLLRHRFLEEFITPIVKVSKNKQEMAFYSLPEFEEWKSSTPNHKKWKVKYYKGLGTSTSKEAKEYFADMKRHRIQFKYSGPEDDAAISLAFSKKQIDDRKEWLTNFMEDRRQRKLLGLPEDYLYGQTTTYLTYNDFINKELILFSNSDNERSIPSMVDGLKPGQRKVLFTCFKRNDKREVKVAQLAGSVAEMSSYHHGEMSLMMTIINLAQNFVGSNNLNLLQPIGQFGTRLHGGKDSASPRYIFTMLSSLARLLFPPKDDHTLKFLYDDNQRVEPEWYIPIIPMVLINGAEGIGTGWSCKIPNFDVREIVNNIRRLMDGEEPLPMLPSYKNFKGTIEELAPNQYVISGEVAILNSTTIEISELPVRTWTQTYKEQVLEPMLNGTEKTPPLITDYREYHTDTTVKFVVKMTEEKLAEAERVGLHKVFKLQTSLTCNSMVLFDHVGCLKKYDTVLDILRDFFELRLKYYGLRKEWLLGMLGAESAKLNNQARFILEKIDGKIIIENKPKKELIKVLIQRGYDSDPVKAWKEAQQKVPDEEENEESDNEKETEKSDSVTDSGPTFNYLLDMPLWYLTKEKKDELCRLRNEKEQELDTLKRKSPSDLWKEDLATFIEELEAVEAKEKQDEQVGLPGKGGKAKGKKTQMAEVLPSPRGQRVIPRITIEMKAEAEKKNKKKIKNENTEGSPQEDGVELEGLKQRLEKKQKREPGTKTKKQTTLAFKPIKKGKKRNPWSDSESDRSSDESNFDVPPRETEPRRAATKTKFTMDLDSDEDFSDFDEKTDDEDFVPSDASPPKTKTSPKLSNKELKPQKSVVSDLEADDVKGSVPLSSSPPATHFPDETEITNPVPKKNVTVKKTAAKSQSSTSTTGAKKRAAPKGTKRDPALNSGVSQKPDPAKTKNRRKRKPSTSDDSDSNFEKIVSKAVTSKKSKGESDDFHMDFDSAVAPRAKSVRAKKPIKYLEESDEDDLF

| Compound | IC50 [µM] |
| --- | --- |
| C=C(C)[C@@H]1CC[C@]2(C(=O)OC)CC[C@]3(CO)[C@H](CC[C@@H]4[C@@]5(C)CC[C@@H](O)C(C)(C)[C@@H]5CC[C@]43C)[C@@H]12 | 8.9 |
| C[C@H]([C@H](C)N1CC(=O)NC(=O)C1)N1CC(=O)NC(=O)C1 [ICRF-193] | 13.9 |
